From patent US20230414701A1, “COMPOSITION FOR PREVENTING, AMELIORATING, OR TREATING COGNITIVE DYSFUNCTION DISEASE, COMPRISING PEPTIDE HAVING SYNAPTIC PLASTICITY CONTROL FUNCTION” (UIF (University Industry Foundation), Yonsei University, priority 2020, published 2023)

Columns and labels:
CCNY protein = CCNY protein (Homo sapiens, UniProt Q8ND76); assay: ELISA of binding capacity of peptides to CCNY; conditions: treated at 10, 100 or 1000 μg/mL; CCNY immobilized on plate; FIG. 5
Method: To examine which of MIC-1 and cyclo MIC-1 according to the present invention easily binds to CCNY, the present inventors conducted an experiment using ELISA. To this end, CCNY was immobilized on a plate, MIC-1 and cyclo MIC-1 were treated at 10, 100 or 1000μg/mL, biotin was bound to the MIC-1 and cyclo MIC-1, and then the optical density of HRP was measured after treating streptavidin-HRP.

[1] = system: hippocampal tissue section from APP/PS1 Alzheimer's disease animal model; assay: fEPSP amplitude (long-term potentiation) in hippocampal tissue sections; parameters: species or system mouse; conditions: 1 μM, 1 hour and 40 minutes, compared to control peptide material; FIG. 6
Method: Specifically, the brain was extracted from an APP/PS1 Alzheimer's disease animal model, and then transferred to a 4° C. sucrose-artificial cerebrospinal fluid solution (195.5 sucrose, 2.5 KC1, 1 NaH2PO4, 32.5 NaHCO3, 11 glucose, 2 NaPyruvate, 1 NaL-ascorbate, 5 MgSO4, 0.5 CaCl2 (95% O2/5% CO2). Subsequently, brain tissue was cut into coronal sections (400 μm) using a microtome, a hippocampal tissue section was transferred to a 35° C. artificial cerebrospinal fluid solution (128.5 NaCl2, 2.5 KCl, 1 NaH2PO4, 21.7 NaHCO3, 11 glucose, 2 NaPyruvate, 1 NaL-ascorbate, 5 MgSO4, 1 CaCl2 (95% O2/5% CO2)) and incubated for 30 minutes to restore the function of the tissue. Subsequently, an experiment was performed for 1 hour and 40 minutes while flowing MIC-1 according to the present invention at a concentration of 1 μM from the beginning until the end of the experiment using gravity, and then the amplitude of field excitatory postsynaptic potential (fEPSP) was measured.

PSD-95 protein = assay: Western blotting of PSD-95 protein expression in Aβ42-treated cells; assay type: cell-based; conditions: FIG. 7
Method: To identify what role MIC-1 plays in improving the cognitive function of MIC-1 according to the present invention, the present inventors, as shown in Example 5, an experiment was performed as follows. Specifically, the change in expression level of the PSD-95 protein known to play an important role in cognitive function was analyzed through Western blotting using a 12% acrylamide gel. For example, it is known that, when cells are treated with Aβ42, compared to normal cells, the amount of PSD-95 protein decreases and cognitive function decreases, resulting in deterioration of memory.

ICR mouse models = assay: Y-maze behavioral experiment, scopolamine-induced memory loss; assay type: in vivo; conditions: 20 mpK intravenous twice for one week, then scopolamine 1 mpK i.p. 30 minutes before test; 7-week-old male ICR mice; FIG. 8
Method: In Example 6-1, it was confirmed that MIC-1 can enhance the expression level of the PSD-95 protein known to be associated with cognitive function, and based on this, a behavioral experiment for mouse models was designed. Specifically, among ICR mouse models, 7-week-old male mouse models were used and divided into a control and two experimental groups (scopolamine-treated group and group administered MIC-1 and then treated with scopolamine) to perform the experiment.
MIC-1 was administered into a mouse twice via intravenous administration at 20 mpK for one week. […] Therefore, to induce such memory loss, 30 minutes before the Y-maze behavioral experiment, scopolamine was intraperitoneally administered at 1 mpK to the experimental groups, resulting in memory deterioration.

Chain of CCNY protein (Q8ND76 whole entry, species assumed): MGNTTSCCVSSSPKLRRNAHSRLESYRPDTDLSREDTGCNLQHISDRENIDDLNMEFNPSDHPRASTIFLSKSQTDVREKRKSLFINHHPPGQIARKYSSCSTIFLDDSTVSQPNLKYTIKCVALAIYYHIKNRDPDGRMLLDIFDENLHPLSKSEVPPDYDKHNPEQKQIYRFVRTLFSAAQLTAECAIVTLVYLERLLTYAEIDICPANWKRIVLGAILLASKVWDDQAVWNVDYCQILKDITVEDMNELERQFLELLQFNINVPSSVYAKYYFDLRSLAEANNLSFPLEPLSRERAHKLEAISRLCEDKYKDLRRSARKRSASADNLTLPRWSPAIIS

Substance: MIC-1: Peptide of SEQ ID NO: 1 (PFTAIRE sequence of Cdk14) in which both termini are modified (Ac-PFTAIRE-NH2)
- binding to the CCNY protein (ELISA, optical density of HRP) (CCNY protein): can remarkably bind to the CCNY protein
- fEPSP amplitude [1]: the fEPSP amplitude increases
- level of the PSD-95 protein (PSD-95 protein): the level of the PSD-95 protein is increased
- alternation (memory) in Y-maze (ICR mouse models): the memory is improved up to the control level
